Biological target: T1, human mAChR M4 (Homo sapiens, UniProt P08173)
T1 construct: expressed in transfected cells; host or cells: CHO-K1 (ATCC), stably co-expressing the chimeric G protein Gqi5
T1 sequence (P08173 1-479): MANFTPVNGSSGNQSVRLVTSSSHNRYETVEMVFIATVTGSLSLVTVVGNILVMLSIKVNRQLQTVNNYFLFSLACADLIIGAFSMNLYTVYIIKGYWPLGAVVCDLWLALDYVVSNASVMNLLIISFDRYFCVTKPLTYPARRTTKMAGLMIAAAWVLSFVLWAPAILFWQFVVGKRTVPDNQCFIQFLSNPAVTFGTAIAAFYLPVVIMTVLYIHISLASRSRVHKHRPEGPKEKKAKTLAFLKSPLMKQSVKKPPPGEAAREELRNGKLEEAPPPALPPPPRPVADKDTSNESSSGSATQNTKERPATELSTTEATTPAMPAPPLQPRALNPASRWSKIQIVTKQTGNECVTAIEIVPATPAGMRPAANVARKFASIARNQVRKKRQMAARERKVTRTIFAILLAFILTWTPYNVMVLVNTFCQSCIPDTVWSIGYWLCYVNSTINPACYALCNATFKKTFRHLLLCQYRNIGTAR
Experiment: mAChR M4 cell-based functional assay (calcium flux, decrease of EC80 acetylcholine response)
Conditions: for remaining activity at 30 µM: % ACh maximum at 30 μM, human M4, read-out: Emin; for IC50: M4/Gqi5/CHO-K1 cells, decrease of response to EC80 acetylcholine
Description: Human or rat M4 cDNA, along with the chimeric G protein Gqi5, were transfected into Chinese hamster ovary (CHO-K1) cells purchased from the American Type Culture Collection using Lipofectamine2000. M4/Gqi5/CHO cells were grown in Ham's F-12 medium containing 10% heat-inactivated fetal bovine serum (FBS), 20 mM HEPES, 500 μg/mL G418 sulfate, and 200 μg/mL Hygromycin B.
For high throughput measurement of agonist-evoked increases in intracellular calcium, CHO-K1 cells stably expressing muscarinic receptors were plated in growth medium lacking G418 and hygromycin at 15,000 cells/20 μL/well in Greiner 384-well black-walled, tissue culture (TC)-treated, clear-bottom plates (VWR). Cells were incubated overnight at 37° C. and 5% CO2. The next day, cells were washed using an ELX 405 (BioTek) with assay buffer: the final volume was then aspirated to 20 μL. Next, 20 μL of a 2.3 μM stock of Fluo-4/acetoxymethyl ester (Invitrogen, Carlsbad, Calif.), prepared as a 2.3 mM stock in DMSO and mixed in a 1:1 ratio with 10% (w/v) Pluronic F-127 and diluted in assay buffer, was added to the wells and the cell plates were incubated for 50 min at 37° C. and 5% CO2. Dye was removed by washing with the ELX 405 and the final volume was aspirated to 20 μL. Compound master plates were formatted in a 10 point concentration-response curve (CRC) format (1:3 dilutions) in 100% DMSO with a starting concentration of 10 or 1 mM using a BRAVO liquid handler (Agilent). Test compound CRCs were then transferred to daughter plates (240 nL) using the Echo acoustic plate reformatter (Labcyte, Sunnyvale, Calif.) and then diluted into assay buffer (40 μL) to a 2× stock using a Thermo Fisher Combi (Thermo Fisher Scientific, Waltham, Mass.).
Calcium flux was measured using the Functional Drug Screening System (FDSS) 6000 or 7000 (Hamamatsu Corporation, Tokyo, Japan) as an increase in the fluorescent static ratio. Compounds were applied to cells (20 μL, 2×) using the automated system of the FDSS at 2 seconds into the protocol and the data were collected at 1 Hz. At 143 s, 10 μL of an EC20 concentration of the muscarinic receptor agonist acetylcholine was added (5×), followed by the addition of 12 μL of an EC80 concentration of acetylcholine at the 268 s time point (5×). Agonist activity was analyzed as a concentration-dependent increase in calcium mobilization upon compound addition. Positive allosteric modulator activity was analyzed as a concentration-dependent increase in the EC20 acetylcholine response. Antagonist activity was analyzed as a concentration-dependent decrease in the EC80 acetylcholine response; for the purposes of the tables herein, an IC50 (inhibitory concentration 50) was calculated as a concentration-dependent decrease of the response elicited by an EC80 concentration of acetylcholine. Concentration-response curves were generated using a four-parameter logistical equation in XLFit curve fitting software (IDBS, Bridgewater, N.J.) for Excel (Microsoft, Redmond, Wash.) or Prism (GraphPad Software, Inc., San Diego, Calif.) or the Dotmatics software platform (Dotmatics, Bishop's Stortford, UK).
Compounds were synthesized as described above. Activity (IC50 and Emin) was determined in the mAChR M4 cell-based functional assay as described above and the data are shown in Table 4. The compound numbers correspond to those used in Examples 1-4 and Tables 1-3.

SMILES	remaining activity at 30 µM [%]	IC50 [nM]
Cc1nn(C)cc1-c1ccc(NC2CC3(C2)CN(CC2CCOCC2)C3)nn1 [Compound 2, N-(6-(1,3-dimethyl-1H-1-pyrazol-4-yl)pyridazin-3-yl)-2-((tetrahydro-2H-pyran-4-yl)methyl)-2-azaspiro[3.3]heptan-6-amine]	46.5	10000
Fc1ccc(Cl)c(-c2ccc(NC3CC4(C3)CN(CC3CCCCC3)C4)nn2)c1 [Compound 5, N-(6-(2-chloro-5-fluorophenyl)pyridazin-3-yl)-2-(cyclohexylmethyl)-2-azaspiro[3.3]heptan-6-amine]	3.1	210
Fc1ccc(Cl)c(-c2ccc(NC3CC4(C3)CN(CC35CC6CC(CC(C6)C3)C5)C4)nn2)c1 [Compound 8, 2-(adamantan-1-ylmethyl)-N-(6-(2-chloro-5-fluorophenyl)pyridazin-3-yl)-2-azaspiro[3.3]heptan-6-amine]	3.8	150
Cc1nn(C)cc1-c1ccc(NCC2CC3(C2)CN(CC2CC4C=CC2C4)C3)nn1 (centres unmarked) [Compound 12, N-((2-(bicyclo[2.2.1]hept-5-en-2-ylmethyl)-2-azaspiro[3.3]heptan-6-yl)methyl)-6-(1,3-dimethyl-1H-pyrazol-4-yl)pyridazin-3-amine]	3.6	700
Fc1ccc(Cl)c(-c2ccc(NCC3CC4(C3)CN(CC3CC5C=CC3C5)C4)nn2)c1 (centres unmarked) [Compound 14, N-((2-(bicyclo[2.2.1]hept-5-en-2-ylmethyl)-2-azaspiro[3.3]heptan-6-yl)methyl)-6-(2-chloro-5-fluorophenyl)pyridazin-3-amine]	2.6	59
Cc1nn(C)cc1-c1ccc(NCC2CC3(C2)CN(CC2CCCCC2)C3)nn1 [Compound 16, N-((2-(cyclohexylmethyl)-2-azaspiro[3.3]heptan-6-yl)methyl)-6-(1,3-dimethyl-1H-pyrazol-4-yl)pyridazin-3-amine]	13.5	4140
CC(C)(C)CCN1CC2(C1)CC1(CC1CNc1ccc(Cl)nn1)C2 (centres unmarked) [Compound 20, 6-Chloro-N-((7-(3,3-dimethylbutyl)-7-azadispiro[2.1.3^5.1^3]nonan-1-yl)methyl)pyridazin-3-amine]	4.9	450
Cc1nn(C)cc1-c1ccc(OCC2CC3(C2)CN(CC2CCCCC2)C3)nn1 [Compound 21, 2-(Cyclohexylmethyl)-6-(((6-(1,3-dimethyl-1H-pyrazol-4-yl)pyridazin-3-yl)oxy)methyl)-2-azaspiro[3.3]heptane]	8.6	2340
Cc1nn(C)cc1-c1ccc(OCC2CC3(C2)CN(CC2CC4C=CC2C4)C3)nn1 (centres unmarked) [Compound 23, 2-(bicyclo[2.2.1]hept-5-en-2-ylmethyl)-6-(((6-(1,3-dimethyl-1H-pyrazol-4-yl)pyridazin-3-yl)oxy)methyl)-2-azaspiro[3.3]heptane]	3.7	680

The next lines start with the values.

remaining activity at 30 µM [%]	IC50 [nM]	SMILES
9.8	1310	CC(=O)Nc1ccc(-c2ccc(NC3CC4(C3)CN(CCC(C)(C)C)C4)nn2)cc1 [Compound 1, N-(4-(6-((2-(3,3-Dimethylbutyl)-2-azaspiro[3.3]heptan-6-yl)amino)pyridazin-3-yl)phenyl)acetamide]
4	100	Fc1ccc(Cl)c(-c2ccc(NC3CC4(C3)CN(CC3CC5C=CC3C5)C4)nn2)c1 (centres unmarked) [Compound 3, 2-(bicyclo[2.2.1]hept-5-en-2-ylmethyl)-N-(6-(2-chloro-5-fluorophenyl)pyridazin-3-yl)-2-azaspiro[3.3]heptan-6-amine]
2.8	160	CC(C)(C)CCN1CC2(CC(Nc3ccc(-c4cc(F)ccc4Cl)nn3)C2)C1 [Compound 4, N-(6-(2-chloro-5-fluorophenyl)pyridazin-3-yl)-2-(3,3-dimethylbutyl)-2-azaspiro[3.3]heptan-6-amine]
5.4	2480	Fc1ccc(Cl)c(-c2ccc(NC3CC4(C3)CN(CC3CCCOC3)C4)nn2)c1 (centres unmarked) [Compound 6, N-(6-(2-chloro-5-fluorophenyl)pyridazin-3-yl)-2-((tetrahydro-2H-pyran-3-yl)methyl)-2-azaspiro[3.3]heptan-6-amine]
7.8	2270	Fc1ccc(Cl)c(-c2ccc(NC3CC4(C3)CN(CC3CCOCC3)C4)nn2)c1 [Compound 7, N-(6-(2-chloro-5-fluorophenyl)pyridazin-3-yl)-2-((tetrahydro-2H-pyran-4-yl)methyl)-2-azaspiro[3,3]heptan-6-amine]
12.4	2890	Cc1nn(C)cc1-c1ccc(NC2CC3(C2)CN(CCC(C)(C)C)C3)nn1 [Compound 9, N-(6-(1,3-dimethyl-1H-pyrazol-4-yl)pyridazin-3-yl)-2-(3,3-dimethylbutyl)-2-azaspiro[3.3]heptan-6-amine]
6.5	1350	Cc1cnn(C)c1-c1ccc(NCC2CC3(C2)CN(CCC(C)(C)C)C3)nn1 [Compound 11, 6-(1,4-Dimethyl-1H-pyrazol-5-yl)-N-((2-(3,3-dimethylbutyl)-2-azaspiro[3.3]heptan-6-yl)methyl)pyridazin-3-amine]
6.1	1530	Cc1nn(C)cc1-c1ccc(NCC2CC3(C2)CN(CC(C)C(C)(C)C)C3)nn1 (centres unmarked) [Compound 13, 6-(1,3-dimethyl-1H-pyrazol-4-yl)-N-((2-(2,3,3-trimethylbutyl)-2-azaspiro[3.3]heptan-6-yl)methyl)pyridazin-3-amine]
7.5	1490	Cc1nn(C)cc1-c1ccc(NCC2CC3(C2)CN(CCC(C)(C)C)C3)nn1 [Compound 15, 6-(1,3-dimethyl-1H-pyrazol-4-yl)-N-((2-(3,3-dimethylbutyl)-2-azaspiro[3.3]heptan-6-yl)methyl)pyridazin-3-amine]
7.8	2200	CC(=O)Nc1ccc(-c2ccc(NCC3CC4(C3)CN(CCC(C)(C)C)C4)nn2)cc1 [Compound 17, N-(4-(6-(((2-(3,3-dimethylbutyl)-2-azaspiro[3.3]heptan-6-yl)methyl)amino)pyridazin-3-yl)phenyl)acetamide]
8.1	1550	CC(=O)Nc1ccc(-c2ccc(NCC3CC4(C3)CN(CC3CC5C=CC3C5)C4)nn2)cc1 (centres unmarked) [Compound 18, N-(4-(6-(((2-(bicyclo[2.2.1]hept-5-en-2-ylmethyl)-2-azaspiro[3.3]heptan-6-yl)methyl)amino)pyridazin-3-yl)phenyl)acetamide]
20.5	8140	CC(=O)Nc1ccc(-c2ccc(NCC3CC4(C3)CN(CC3CCCCC3)C4)nn2)cc1 [Compound 19, N-(4-(6-(((2-(cyclohexylmethyl)-2-azaspiro[3.3]heptan-6-yl)methyl)amino)pyridazin-3-yl)phenyl)acetamide]
4.6	1380	Cc1nn(C)cc1-c1ccc(OCC2CC3(C2)CN(CCC(C)(C)C)C3)nn1 [Compound 22, 6-(((6-(1,3-dimethyl-1H-pyrazol-4-yl)pyridazin-3-yl)oxy)methyl)-2-(3,3-dimethylbutyl)-2-azaspiro[3.3]heptane]

Reference: patent publication US11325896B2, “Antagonists of the muscarinic acetylcholine receptor M4” (Vanderbilt University, priority 2017, dated 2022)
